Data reported in patent publication US20040266886A1, “Cosmetic and/or pharmaceutical superfatting preparations” (priority 2001, published 2004).
Like-named read-outs stand apart in the source and are kept apart here.

Experiments:
pig's epidermis [1] = experiment: Dermatological compatibility: transepidermal water loss (TEWL), gravimetric; details: for TEWL [%-rel] = [treated/untreated * 100] − 100%: […] by weight fatty acid partial glyceride in 17% by weight Plantapon PS 10, pH 5.5, skin treated 30 minutes at 40° C., lower value = better compatibility
Protocol: (§1) Dermatological compatibility was evaluated by determining the transepidermal water loss (TEWL) in a pig's epidermis. To this end, defined pieces of skin were treated with the various test solutions for 30 minutes at 40° C. and the TEWL value was gravimetrically determined. The test solutions were mixtures of 17% by weight Plantapon® PS 10 (sodium lauryl ether sulfate and Lauryl Glycoside, Cognis Düsseldorf) with 1.5% by weight fatty acid partial glycerides (see Table 1) in preservative-containing water (WAS 10% by weight). The pH was adjusted to 5.5 with citric acid.

pig's epidermis [2] = details: pH 5.5
Protocol: as §1

| Compound | TEWL [%-rel] = [treated/untreated * 100] − 100% (pig's epidermis [1]) [%-rel] | TEWL [%-rel] = [treated/untreated * 100] − 100% (pig's epidermis [2]) [%-rel] | other results |
| --- | --- | --- | --- |
| CCCCCCCCCCCC(=O)OCC(O)CO (centres unmarked) [Example 4, Lauric acid monoglyceride (>90)] | 10.5 |  |  |
| Glycerol monocaprylate (>90) [Example 2] |  |  | Transepidermal water loss / dermatological compatibility (in words) (pig's epidermis [1]; compared with mixtures of 65% by weight monoglyceride and 35% by weight diglyceride): very good compatibility |
| Isostearic acid mono/diglyceride (65:35) [Example 7] |  | 22.0 |  |
| Isostearic acid monoglyceride (>90) [Example 8] | 18.5 |  |  |
| Lauric acid mono/diglyceride (65:35) [Example 3] |  | 20.5 |  |
